Measured values published in patent publication US4115385A, “Antibacterial 3-(5-tetrazolyl) penam compounds” (Pfizer Inc., priority 1977, dated 1978).
≈ marks a conversion by molar mass, not a printed value.

Test system: Streptococcus pyogenes
Assay: In vitro minimum inhibitory concentration (MIC) vs. Strep. pyogenes
Assay type: cell-based
Details: Streptococcus pyogenes, read-out: MIC vs. Strep. pyogenes
Procedure: The antibacterial penam compounds of the instant invention show activity against a wide variety of gram-positive and gram-negative bacteria. […] The broth is inoculated with the bacterial culture, and with the test antibiotic, and then it is incubated overnight. On the next day, the test is read visually. The minimum inhibitory concentration (MIC) is the lowest concentration of antibiotic which prevents turbidity, i.e., which prevents growth of the microorganism. In vitro activities of several of the penam compounds of the invention are presented later in this specification.
In Table II, the minimum inhibitory concentrations (MIC's) of compounds of formula I, wherein R^2 is hydrogen, against a strain of Streptococcus pyogenes, are reported; and in Table III, minimum inhibitory concentrations of compounds of formula I, wherein R^2 is hydrogen, against a strain of Staphylococcus aureus, are presented. Because of the tautomeric nature of such tetrazole derivatives, referred to hereinbefore,each of the preparations tested also contains some of the corresponding compound of formula II, wherein R^3 is hydrogen.

| Compound | MIC [µg/mL] |
| --- | --- |
| CC1(C)S[C@@H]2[C@H](NC(=O)[C@H](NC(=O)CNC(=O)NC(=N)Cc3ccc(Cl)cc3)c3ccccc3)C(=O)N2[C@H]1c1nnn[nH]1 | < 0.1 |
| CC1(C)S[C@@H]2[C@H](NC(=O)[C@H](NC(=O)NC(=O)C34CC5CC(CC(C5)C3)C4)c3ccccc3)C(=O)N2[C@H]1c1nn[nH]n1 | < 0.1 |
| CC1(C)S[C@@H]2[C@H](NC(=O)[C@H](NC(=O)NC(=O)c3cccnc3)c3ccccc3)C(=O)N2[C@H]1c1nn[nH]n1 | 0.1 (≈ 0.192 µM) |
| CC1(C)S[C@@H]2[C@H](NC(=O)[C@H](NC(=O)NC(=O)c3cc(Br)cc(Br)c3)c3ccccc3)C(=O)N2[C@H]1c1nn[nH]n1 | < 0.1 |
| CC1(C)S[C@@H]2[C@H](NC(=O)[C@H](NC(=O)NC(=O)C3CC3)c3ccccc3)C(=O)N2[C@H]1c1nn[nH]n1 | < 0.1 |
| COc1ccc(C(=N)NC(=O)NCC(=O)N[C@@H]2C(=O)N3[C@@H]2SC(C)(C)[C@@H]3c2nnn[nH]2)cc1 | 0.1 (≈ 0.211 µM) |
| CC1(C)S[C@@H]2[C@H](NC(=O)[C@H](NC(=O)CSc3nc4ccccc4[nH]3)c3ccccc3)C(=O)N2[C@H]1c1nn[nH]n1 | < 0.1 |
| CC1(C)S[C@@H]2[C@H](NC(=O)[C@H](NC(=O)CNC(=N)c3nc4ccccc4[nH]3)c3ccccc3)C(=O)N2[C@H]1c1nnn[nH]1 | < 0.1 |
| CC1(C)S[C@@H]2[C@H](NC(=O)[C@H](NC(=O)CNC(=N)c3nc4ccccc4s3)c3ccccc3)C(=O)N2[C@H]1c1nnn[nH]1 | < 0.1 |
| CC1(C)S[C@@H]2[C@H](NC(=O)[C@H](NC(=O)Cc3ccco3)c3ccccc3)C(=O)N2[C@H]1c1nnn[nH]1 | < 0.1 |
| CC1(C)S[C@@H]2[C@H](NC(=O)[C@H](NC(=O)CNC(=N)c3cnc4ccccc4n3)c3ccccc3)C(=O)N2[C@H]1c1nnn[nH]1 | 0.1 (≈ 0.171 µM) |
| CC1(C)S[C@@H]2[C@H](NC(=O)[C@H](NC(=O)Cc3cccs3)c3ccccc3)C(=O)N2[C@H]1c1nnn[nH]1 | 0.1 (≈ 0.201 µM) |
| CC1(C)S[C@@H]2[C@H](NC(=O)[C@H](NC(=O)CNC(=O)NC(=N)NCc3ccccc3)c3ccccc3)C(=O)N2[C@H]1c1nn[nH]n1 | 0.1 (≈ 0.165 µM) |
| CCNC(=N)NC(=O)NCC(=O)N[C@@H](C(=O)N[C@@H]1C(=O)N2[C@@H]1SC(C)(C)[C@@H]2c1nn[nH]n1)c1ccccc1 | < 0.1 |
| CNC(=N)NC(=O)NCC(=O)N[C@@H](C(=O)N[C@@H]1C(=O)N2[C@@H]1SC(C)(C)[C@@H]2c1nn[nH]n1)c1ccccc1 | < 0.1 |
| CC1(C)S[C@@H]2[C@H](NC(=O)[C@H](NC(=O)CNC(=O)NC(=O)c3ccccc3)c3ccccc3)C(=O)N2[C@H]1c1nnn[nH]1 | < 0.1 |
| CC1(C)S[C@@H]2[C@H](NC(=O)[C@H](NC(=O)CNC(=N)c3cc(I)cc(C#N)c3)c3ccccc3)C(=O)N2[C@H]1c1nnn[nH]1 | < 0.1 |
| CNC(=O)NCC(=O)N[C@@H](C(=O)N[C@@H]1C(=O)N2[C@@H]1SC(C)(C)[C@@H]2c1nnn[nH]1)c1ccccc1 | < 0.1 |
| CC1(C)S[C@@H]2[C@H](NC(=O)[C@H](NC(=O)CNC(=O)Nc3ccccc3)c3ccccc3)C(=O)N2[C@H]1c1nnn[nH]1 | < 0.1 |
| COc1ccc(CC(=O)N[C@@H](C(=O)N[C@@H]2C(=O)N3[C@@H]2SC(C)(C)[C@@H]3c2nnn[nH]2)c2ccccc2)cc1 | 0.1 (≈ 0.192 µM) |
| CC1(C)S[C@@H]2[C@H](NC(=O)[C@H](NC(=O)CSC3=NC(=O)CN3)c3ccccc3)C(=O)N2[C@H]1c1nn[nH]n1 | 0.1 (≈ 0.189 µM) |

| Compound | MIC [µg/mL] |
| --- | --- |
| CC1(C)S[C@@H]2[C@H](NC(=O)[C@H](NC(=O)CNC(=N)c3cc[n+]([O-])cc3)c3ccccc3)C(=O)N2[C@H]1c1nnn[nH]1 | < 0.1 |
| CNC(=N)NCC(=O)N[C@@H](C(=O)N[C@@H]1C(=O)N2[C@@H]1SC(C)(C)[C@@H]2c1nn[nH]n1)c1ccccc1 | < 0.1 |
| CC(=O)NCC(=O)N[C@@H](C(=O)N[C@@H]1C(=O)N2[C@@H]1SC(C)(C)[C@@H]2c1nn[nH]n1)c1ccccc1 | < 0.1 |
| CC1(C)S[C@@H]2[C@H](NC(=O)[C@H](NC(=O)CNS(=O)(=O)Cc3ccccc3)c3ccccc3)C(=O)N2[C@H]1c1nn[nH]n1 | < 0.1 |
| CC1(C)S[C@@H]2[C@H](NC(=O)[C@H](NC(=O)CNS(=O)(=O)c3ccccc3)c3ccccc3)C(=O)N2[C@H]1c1nn[nH]n1 | < 0.1 |
| CCCC(=O)NCC(=O)N[C@@H](C(=O)N[C@@H]1C(=O)N2[C@@H]1SC(C)(C)[C@@H]2c1nnn[nH]1)c1ccccc1 | < 0.1 |
| CCOC(=O)CC(=O)N[C@@H](C(=O)N[C@@H]1C(=O)N2[C@@H]1SC(C)(C)[C@@H]2c1nnn[nH]1)c1ccccc1 | < 0.1 |
| CCOC(=O)NCC(=O)N[C@@H](C(=O)N[C@@H]1C(=O)N2[C@@H]1SC(C)(C)[C@@H]2c1nnn[nH]1)c1ccccc1 | < 0.1 |
| CCSCC(=O)N[C@@H](C(=O)N[C@@H]1C(=O)N2[C@@H]1SC(C)(C)[C@@H]2c1nnn[nH]1)c1ccccc1 | < 0.1 |
| CC1(C)S[C@@H]2[C@H](NC(=O)[C@H](NC(=O)CNC(=N)N)c3ccccc3)C(=O)N2[C@H]1c1nn[nH]n1 | < 0.1 |
| CC1(C)S[C@@H]2[C@H](NC(=O)[C@H](NC(=O)CNC(=N)c3cccc(C(N)=O)c3)c3ccccc3)C(=O)N2[C@H]1c1nnn[nH]1 | < 0.1 |
| CC1(C)S[C@@H]2[C@H](NC(=O)[C@H](NC(=O)CNC(=N)c3cccc(S(N)(=O)=O)c3)c3ccccc3)C(=O)N2[C@H]1c1nnn[nH]1 | < 0.1 |
| CC1(C)S[C@@H]2[C@H](NC(=O)[C@H](NC(=O)CNS(C)(=O)=O)c3ccccc3)C(=O)N2[C@H]1c1nn[nH]n1 | < 0.1 |
| CC1(C)S[C@@H]2[C@H](NC(=O)[C@H](NC(=O)CNC(=O)c3ccc(Cl)cc3)c3ccccc3)C(=O)N2[C@H]1c1nnn[nH]1 | 0.1 (≈ 0.176 µM) |
| COc1ccc(C(=O)NCC(=O)N[C@@H](C(=O)N[C@@H]2C(=O)N3[C@@H]2SC(C)(C)[C@@H]3c2nnn[nH]2)c2ccccc2)cc1 | 0.1 (≈ 0.177 µM) |
| CC1(C)S[C@@H]2[C@H](NC(=O)[C@H](NC(=O)CNC(=N)c3ccc([N+](=O)[O-])cc3)c3ccccc3)C(=O)N2[C@H]1c1nnn[nH]1 | < 0.1 |
| CC1(C)S[C@@H]2[C@H](NC(=O)[C@H](NC(=O)CNC(=O)c3ccc([N+](=O)[O-])cc3)c3ccccc3)C(=O)N2[C@H]1c1nnn[nH]1 | < 0.1 |
| CC1(C)S[C@@H]2[C@H](NC(=O)[C@H](NC(=O)CSc3ccccc3)c3ccccc3)C(=O)N2[C@H]1c1nnn[nH]1 | < 0.1 |
| CCC(=O)NCC(=O)N[C@@H](C(=O)N[C@@H]1C(=O)N2[C@@H]1SC(C)(C)[C@@H]2c1nn[nH]n1)c1ccccc1 | < 0.1 |
| CC1(C)S[C@@H]2[C@H](NC(=O)[C@H](NC(=O)c3ccc[nH]3)c3ccccc3)C(=O)N2[C@H]1c1nnn[nH]1 | < 0.1 |
| CC1(C)S[C@@H]2[C@H](NC(=O)[C@H](NC(=O)c3cccs3)c3ccccc3)C(=O)N2[C@H]1c1nnn[nH]1 | < 0.1 |

| Compound | MIC [µg/mL] |
| --- | --- |
| CC1(C)S[C@@H]2[C@H](NC(=O)[C@H](NC(=O)CCNC(=O)c3ccco3)c3ccccc3)C(=O)N2[C@H]1c1nnn[nH]1 | < 0.1 |
| CC1(C)S[C@@H]2[C@H](NC(=O)[C@H](NC(=O)NC(=O)Cc3ccccc3)c3ccccc3)C(=O)N2[C@H]1c1nn[nH]n1 | < 0.1 |
| CC1(C)S[C@@H]2[C@H](NC(=O)[C@H](NC(=O)CCNC(=N)c3cccs3)c3ccccc3)C(=O)N2[C@H]1c1nnn[nH]1 | < 0.1 |
| CC1(C)S[C@@H]2[C@H](NC(=O)[C@H](NC(=O)CCNC(=O)c3cccc(Cl)c3)c3ccccc3)C(=O)N2[C@H]1c1nnn[nH]1 | < 0.1 |
| Cc1cc(C(=O)NC(=O)N[C@@H](C(=O)N[C@@H]2C(=O)N3[C@@H]2SC(C)(C)[C@@H]3c2nn[nH]n2)c2ccccc2)on1 | < 0.1 |
| CNC(=O)NCCC(=O)N[C@@H](C(=O)N[C@@H]1C(=O)N2[C@@H]1SC(C)(C)[C@@H]2c1nnn[nH]1)c1ccccc1 | < 0.1 |
| CC1(C)S[C@@H]2[C@H](NC(=O)[C@H](NC(=O)CCNC(=N)c3cc(Br)cc(Br)c3)c3ccccc3)C(=O)N2[C@H]1c1nnn[nH]1 | < 0.1 |
| CC1(C)S[C@@H]2[C@H](NC(=O)[C@H](NC(=O)CCNC(=O)c3ccc(Cl)cc3)c3ccccc3)C(=O)N2[C@H]1c1nnn[nH]1 | < 0.1 |
| CC1(C)S[C@@H]2[C@H](NC(=O)[C@H](NC(=O)CCNC(=N)c3ccncc3)c3ccccc3)C(=O)N2[C@H]1c1nnn[nH]1 | < 0.1 |
| CC1(C)S[C@@H]2[C@H](NC(=O)[C@H](NC(=O)CCC(=N)N)c3ccccc3)C(=O)N2[C@H]1c1nn[nH]n1 | < 0.1 |
| CC1(C)S[C@@H]2[C@H](NC(=O)[C@H](NC(=O)Nc3ccc(Cl)cc3)c3ccc(O)cc3)C(=O)N2[C@H]1c1nnn[nH]1 | < 0.1 |
| CC1(C)S[C@@H]2[C@H](NC(=O)[C@H](NC(=O)Nc3ccc(Cl)cc3)c3ccccc3)C(=O)N2[C@H]1c1nnn[nH]1 | < 0.1 |
| COc1ccc(NC(=O)N[C@@H](C(=O)N[C@@H]2C(=O)N3[C@@H]2SC(C)(C)[C@@H]3c2nnn[nH]2)c2ccc(O)cc2)cc1 | < 0.1 |
| COc1ccc(NC(=O)N[C@@H](C(=O)N[C@@H]2C(=O)N3[C@@H]2SC(C)(C)[C@@H]3c2nnn[nH]2)c2ccccc2)cc1 | < 0.1 |
| CC(=N)NCCC(=O)N[C@@H](C(=O)N[C@@H]1C(=O)N2[C@@H]1SC(C)(C)[C@@H]2c1nnn[nH]1)c1ccccc1 | < 0.1 |
| CC(=O)NCCC(=O)N[C@@H](C(=O)N[C@@H]1C(=O)N2[C@@H]1SC(C)(C)[C@@H]2c1nnn[nH]1)c1ccccc1 | < 0.1 |
| CC1(C)S[C@@H]2[C@H](NC(=O)[C@H](NC(=O)CCNC(=O)c3ccccc3)c3ccccc3)C(=O)N2[C@H]1c1nnn[nH]1 | < 0.1 |
| CC1(C)S[C@@H]2[C@H](NC(=O)[C@H](NC(=O)c3cccnc3)c3ccccc3)C(=O)N2[C@H]1c1nnn[nH]1 | < 0.1 |
| CC1(C)S[C@@H]2[C@H](NC(=O)[C@H](NC(=O)OCc3ccccc3)c3ccccc3)C(=O)N2[C@H]1c1nnn[nH]1 | < 0.1 |
| CCOC(=O)C(=O)N[C@@H](C(=O)N[C@@H]1C(=O)N2[C@@H]1SC(C)(C)[C@@H]2c1nnn[nH]1)c1ccccc1 | < 0.1 |
